# Data published in patent US8912120B2, “Herbicidal compositions comprising 4-amino-3-chloro-5-fluoro-6-(4-chloro-2-fluoro-3-methoxyphenyl) pyridine-2-carboxylic acid or a derivative thereof and synthetic auxin herbicides” (Dow AgroSciences, LLC., priority 2012, dated 2014).
# Experiments:
# STEME = test: Example IV: postemergence foliar-applied herbicidal mixtures, cereal crops, STEME; format: in vivo, Stellaria media (common chickweed); settings: alone, 10 gai/ha, 20-22 days
# Description: (§1) Seeds of the desired test plant species were planted in Sun Gro MetroMix 306 planting mixture, which typically has a pH of 6.0 to 6.8 and an organic matter content of about 30 percent, in plastic pots with a surface area of 103.2 square centimeters (cm^2). […] The plants were grown for 7-36 days in a greenhouse with an approximate 14 hour photoperiod which was maintained at about 18° C. during the day and 17° C. during the night.
# (§2) Spray solutions of the second cereal herbicide and experimental compound mixtures were prepared by adding the stock solutions to the appropriate amount of dilution solution to form 12 mL spray solution with active ingredients in two- and three-way combinations.
# VIOTR = test: Example IV: postemergence foliar-applied herbicidal mixtures, cereal crops, VIOTR; format: in vivo, Viola tricolor (wild pansy); settings: alone, foliar, 20-22 days
# Description: as §1, §2
# POLCO = test: Example IV: postemergence foliar-applied herbicidal mixtures, cereal crops, POLCO; format: in vivo, Polygonum convolvulus (wild buckwheat); settings: alone, foliar, 20-22 days
# How it was run: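 Greenhouse plants were grown 7–36 days in potting mix (pH 6.0–6.8) under ~14 h photoperiod at about 18 °C day/17 °C night. Postemergence foliar sprays (12 mL) contained the second cereal herbicide with experimental compound as two- and three-way mixtures.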
# CIRAR = test: Example IV: postemergence foliar-applied herbicidal mixtures, cereal crops, CIRAR; format: in vivo, Cirsium arvense (Canada thistle); settings: alone, 20-22 days
# Description: as §1, §2
# AMARE = test: Example IV: postemergence foliar-applied herbicidal mixtures, weed control in cereal crops in the greenhouse, AMARE; format: in vivo, Amaranthus retroflexus (redroot pigweed); settings: alone, 35 gai/ha, 20-22 days
# Description: as §1, §2
# BRSNN = test: Example IV: postemergence foliar-applied herbicidal mixtures, cereal crops, BRSNN; format: in vivo, Brassica napus (volunteer canola); settings: alone, 3 gai/ha, foliar, 20-22 days
# Description: as §1, §2
smiles,measurement,setting,value
"Nc1c(Cl)c(Cl)nc(C(=O)O)c1Cl [Picloram, 4-amino-3,5,6-trichloro-2-pyridinecarboxylic acid]",STEME Ob (observed value),STEME,0%
same,VIOTR Ob (observed value),VIOTR; 10 gai/ha,3%
same,POLCO Ob (observed value),POLCO; 10 gai/ha,40%
"Nc1c(Cl)c(F)nc(OCC(=O)O)c1Cl [Fluroxypyr, 2-[(4-amino-3,5-dichloro-6-fluoro-2-pyridinyl)oxy]acetic acid]",CIRAR Ob (observed value),CIRAR; 35 gai/ha,3%
same,VIOTR Ob (observed value),VIOTR; 35 gai/ha,10%
same,POLCO Ob (observed value),POLCO; 35 gai/ha,23%
same,AMARE Ob (observed value),AMARE,33%
"Nc1cc(Cl)nc(C(=O)O)c1Cl [Aminopyralid, 4-amino-3,6-dichloro-2-pyridinecarboxylic acid]",CIRAR Ob (observed value),CIRAR; 3 gai/ha,13%
same,BRSNN Ob (observed value),BRSNN,0%
same,POLCO Ob (observed value),POLCO; 3 gai/ha,3%
